Here are results for 10 compounds from ChEMBL document CHEMBL1201862, “PubChem BioAssay data set” (2004).

Among the test systems are SF-539; SF-295; NCI-H522; UACC-257; 786-0; CCRF-CEM; HT-29; OVCAR-5; OVCAR-8; A549; A498; MOLT-4; HCT-15; RPMI-8226; SNB-75; UO-31.
What all share (assay): growth of human tumour cells (NCI), 48 h

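Protocol summary: plate cells (96-well), add compound at 5 concentrations, incubate 48 h, interpolate endpoints linearly. GI50 marks 50% less growth.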 Calls of active or inactive are those of the source. No stated cut-off is given here; in the data, active = GI50 up to about 1.1 µM and inactive = higher.

On to `COC1OC(C)C2OC(C)(C)OC2C1OC(C)=O` (stereo not given), for which the GI50 with SF-539, in the test with SF-295, in the test on NCI-H522, with UACC-257, with 786-0 and in the test on CCRF-CEM was > 100 µM (inactive) each time. Moreover, the GI50 in the test with HT-29, in the test with OVCAR-5, in the test with OVCAR-8, in the test on A549, in the test on A498 and with MOLT-4 was > 100 µM (inactive) throughout. In addition, the GI50 in the test with HCT-15 was more than 100 µM; with RPMI-8226, > 100 µM (inactive).
With `Cc1[nH]c2ccccc2c1C(=O)/C=C/c1ccccc1O`, the GI50 in the test on SF-295, in the test with NCI-H522, in the test with UACC-257, with 786-0, with CCRF-CEM and with HT-29 was > 100 µM (inactive) each time. Also, the GI50 in the test on OVCAR-5, in the test with OVCAR-8, in the test with A549, with SNB-75, in the test on UO-31 and in the test with A498 was > 100 µM (inactive) throughout. Besides, the GI50 in the test with MOLT-4 was > 100 µM (inactive).
For `C=CCC1(CN(C)C)CC/C(=C\c2ccc(Cl)cc2)C1=O` (stereo not given), the GI50 was > 54.1 µM (inactive) with SF-539; 35.5 µM (inactive) with SF-295; 18.9 µM (inactive) in the test with NCI-H522; 25.5 µM (inactive) with UACC-257; 38.1 µM (inactive) in the test on 786-0; 15.9 µM (inactive) in the test with CCRF-CEM. In addition, the GI50 in the test on HT-29 is 24.1 µM (inactive); in the test with OVCAR-5, > 77.4 µM (inactive); in the test on OVCAR-8, 42.3 µM (inactive); in the test with A549, 59.6 µM (inactive); in the test on SNB-75 it was 33 µM (inactive); with UO-31 it was 41.5 µM (inactive). Besides, the GI50 with A498 was 37.2 µM (inactive); in the test on MOLT-4, 17.9 µM (inactive); in the test with HCT-15, 25.1 µM; with RPMI-8226, 17 µM (inactive).
As to `CN(C)CCNC(=O)c1cccc2cc3ccc4ccccc4c3nc12`, the GI50 was 0.0811 µM (active) in the test with SF-539; 0.0867 µM (active) in the test with SF-295; 0.122 µM (active) in the test with NCI-H522; 0.177 µM (active) in the test on UACC-257; 0.0824 µM (active) in the test with 786-0; 0.0406 µM (active) with CCRF-CEM. Further, the GI50 in the test with HT-29 was 0.0516 µM (active); with OVCAR-5, 0.214 µM (active); in the test on OVCAR-8, 0.0594 µM (active); in the test on A549, 0.0226 µM (active); with SNB-75 it was 0.131 µM (active); in the test with UO-31 it was 0.0481 µM (active). Moreover, the GI50 in the test on A498 was < 0.01 µM (active); with MOLT-4, 0.0156 µM (active); in the test with HCT-15 it was 0.0684 µM; in the test on RPMI-8226 it was 0.145 µM (active).
For the compound `Cc1ccc(S(=O)(=O)N/N=C(\c2nc3ccc([N+](=O)[O-])cc3nc2O)C(O)c2ccccc2Cl)cc1` (stereo not given), the GI50 in the test on SF-539 is > 100 µM (inactive); with SF-295, > 100 µM (inactive); with NCI-H522 it was 6.93 µM (inactive); with UACC-257 it was > 100 µM (inactive); in the test on 786-0, > 100 µM (inactive); in the test on CCRF-CEM, 17.5 µM (inactive). Besides, the GI50 in the test on HT-29, in the test with OVCAR-5, in the test with OVCAR-8, with A549, in the test on SNB-75 and in the test with UO-31 was > 100 µM (inactive) in each case. Moreover, the GI50 in the test with A498 was > 100 µM (inactive); in the test on MOLT-4, > 100 µM (inactive); in the test on HCT-15 it was 78 µM; with RPMI-8226, 61.1 µM (inactive).
As to `Cc1cc(C)nc(NS(=O)(=O)c2ccc(NC(=O)c3cccc4cc5ccccc5nc34)cc2)n1`, the GI50 in the test with SF-539 was 15.3 µM (inactive); in the test on SF-295, 30.1 µM (inactive); in the test with NCI-H522, 18.7 µM (inactive); in the test with UACC-257, 37.3 µM (inactive); in the test on 786-0, 39.5 µM (inactive); with CCRF-CEM, 21.4 µM (inactive). Further, the GI50 in the test on HT-29 is 35.8 µM (inactive); in the test on OVCAR-5, 62.2 µM (inactive); with OVCAR-8 it was 33 µM (inactive); with A549, 34.3 µM (inactive); in the test on SNB-75, 51.4 µM (inactive); in the test on UO-31, 53.8 µM (inactive). Also, the GI50 with A498 is 21.3 µM (inactive); in the test with MOLT-4, 19.6 µM (inactive); in the test on HCT-15, 21 µM; in the test on RPMI-8226, 21.4 µM (inactive).
In the case of `COC(=O)CCSC(=O)Nc1ccccc1Cl`, the GI50 was > 100 µM (inactive) with SF-539; > 100 µM (inactive) in the test on SF-295; 1.36 µM (inactive) with NCI-H522; > 100 µM (inactive) in the test on UACC-257; > 100 µM (inactive) with 786-0; 58.1 µM (inactive) in the test with CCRF-CEM. The GI50 in the test with HT-29, in the test with OVCAR-5, in the test on OVCAR-8, in the test with A549, with SNB-75 and with UO-31 was > 100 µM (inactive) throughout. Also, the GI50 with A498 was > 100 µM (inactive); in the test on MOLT-4 it was > 100 µM (inactive); in the test on HCT-15, more than 100 µM; in the test with RPMI-8226, > 100 µM (inactive).
Consider `Cc1ccc(/C=N/NS(=O)(=O)c2ccccc2)cc1`, for which the GI50 is > 100 µM (inactive) in the test with SF-539; 74 µM (inactive) in the test with SF-295; > 100 µM (inactive) in the test on UACC-257; > 100 µM (inactive) with 786-0; > 100 µM (inactive) in the test on CCRF-CEM; > 100 µM (inactive) with HT-29. In addition, the GI50 in the test with OVCAR-5, with OVCAR-8, in the test on A549, with SNB-75, in the test with UO-31 and in the test with A498 was > 100 µM (inactive) each time. The GI50 with MOLT-4 was > 100 µM (inactive); in the test on HCT-15, more than 100 µM; in the test on RPMI-8226, > 100 µM (inactive).
Regarding `O=C(N/C(=C\c1cccc([N+](=O)[O-])c1)c1nc2c3c(ccc2[nH]1)C(=O)c1ccccc1C3=O)c1ccccc1`, the GI50 is 21.4 µM (inactive) in the test on SF-539; 16.5 µM (inactive) in the test on NCI-H522; 26.1 µM (inactive) in the test on 786-0; 35.6 µM (inactive) in the test with HT-29; 26.5 µM (inactive) in the test with OVCAR-5; 36.5 µM (inactive) in the test with OVCAR-8. For the same compound, the GI50 in the test with A549 is 30.9 µM (inactive); in the test on SNB-75, 58.6 µM (inactive); in the test on UO-31, > 100 µM (inactive); in the test on A498, 83 µM (inactive); with HCT-15, 15 µM; with RPMI-8226, 14.1 µM (inactive).
In the case of `COc1ccc(C(c2ccc(C(C)C)cc(OC)c2=O)c2ccc(C(C)C)cc(OC)c2=O)cc1`, the GI50 was 17 µM (inactive) in the test on SF-539; 16.2 µM (inactive) in the test with SF-295; 14.4 µM (inactive) in the test on NCI-H522; 15.5 µM (inactive) with UACC-257; 16.6 µM (inactive) in the test with 786-0; 10.2 µM (inactive) with CCRF-CEM. Besides, the GI50 in the test with HT-29 was 10.8 µM (inactive); in the test on OVCAR-5 it was 20.1 µM (inactive); in the test on OVCAR-8, 16.6 µM (inactive); with A549, 12 µM (inactive); in the test with SNB-75, 19.6 µM (inactive); in the test with UO-31, 14.3 µM (inactive). Moreover, the GI50 with A498 is 17.7 µM (inactive); in the test on MOLT-4 it was 7.53 µM (inactive); in the test on HCT-15 it was 12.7 µM; in the test on RPMI-8226 it was 5.06 µM (inactive).
